Values after ≈ are worked out from the molar mass of the structure shown.
Experiments:
Assay type in all cases: cell-based
[1] = test system: Candida parapsilosis SUN05; experiment: Antimicrobial activity (MIC), Candida parapsilosis SUN05; details: Lodderomyces parapsilosis, potato dextrose broth pH 3.8, visual evaluation, read-out: Minimal Inhibitory Concentration (MIC)
[2] = test system: Brettanomyces sp SUN08; experiment: Antimicrobial activity (MIC), Brettanomyces sp SUN08; details: potato dextrose broth pH 3.8, visual evaluation, read-out: Minimal Inhibitory Concentration (MIC)
[3] = test system: Leuconostoc lactis DSM 20202; experiment: Antimicrobial activity (MIC), Leuconostoc lactis DSM 20202; details: DSM20202, potato dextrose broth pH 3.8, visual evaluation, read-out: Minimal Inhibitory Concentration (MIC)
[4] = test system: Gluconacetobacter liquefaciens DSM 5603; experiment: Antimicrobial activity (MIC), Gluconacetobacter liquefaciens DSM 5603; details: DSM5603, potato dextrose broth pH 3.8, visual evaluation, read-out: Minimal Inhibitory Concentration (MIC)
[5] = test system: Bacillus subtilis ATCC 6633; experiment: Antimicrobial activity (MIC), Bacillus subtilis ATCC 6633; details: ATCC6633, potato dextrose broth pH 3.8, visual evaluation, read-out: Minimal Inhibitory Concentration (MIC)
[6] = test system: Saccharomyces cerevisiae SUN01; experiment: Antimicrobial activity (MIC), Saccharomyces cerevisiae SUN01; details: potato dextrose broth pH 3.8, visual evaluation, read-out: Minimal Inhibitory Concentration (MIC)
[7] = test system: Enterococcus faecalis ATCC 7080; experiment: Antimicrobial activity (MIC), Enterococcus faecalis ATCC 7080; details: ATCC7080, potato dextrose broth pH 3.8, visual evaluation, read-out: Minimal Inhibitory Concentration (MIC)
[8] = test system: Asaia siamensis SUN03; experiment: Antimicrobial activity (MIC), Asaia siamensis SUN03; details: potato dextrose broth pH 3.8, visual evaluation
[9] = test system: Saccharomyces cerevisiae SUN06; experiment: Antimicrobial activity (MIC), Saccharomyces cerevisiae SUN06; details: potato dextrose broth pH 3.8, visual evaluation, read-out: Minimal Inhibitory Concentration (MIC)
[10] = test system: Byssochlamys nivea SUN10; experiment: Antimicrobial activity (MIC), Byssochlamys nivea SUN10; details: Paecilomyces niveus, potato dextrose broth pH 3.8, visual evaluation, read-out: Minimal Inhibitory Concentration (MIC)
[11] = test system: Neosartorya fischeri SUN09; experiment: Antimicrobial activity (MIC), Neosartorya fischeri SUN09; details: Aspergillus fischeri, potato dextrose broth pH 3.8, visual evaluation, read-out: Minimal Inhibitory Concentration (MIC)
[12] = test system: Zygosaccharomyces bailli SUN02; experiment: Antimicrobial activity (MIC), Zygosaccharomyces bailli SUN02; details: potato dextrose broth pH 3.8, visual evaluation, read-out: Minimal Inhibitory Concentration (MIC)
[13] = test system: Penicillium paneum SUN04; experiment: Antimicrobial activity (MIC), Penicillium paneum SUN04; details: potato dextrose broth pH 3.8, visual evaluation, read-out: Minimal Inhibitory Concentration (MIC)
[14] = test system: Zygosaccharomyces bailli SUN07; experiment: Antimicrobial activity (MIC), Zygosaccharomyces bailli SUN07; details: potato dextrose broth pH 3.8, visual evaluation, read-out: Minimal Inhibitory Concentration (MIC)
[15] = test system: Clostridium sporogenes ATCC19404; experiment: Antimicrobial activity (MIC), Clostridium sporogenes ATCC19404; details: potato dextrose broth pH 3.8, visual evaluation, read-out: Minimal Inhibitory Concentration (MIC)
Experimental: Compounds are dissolved at a concentration of 20 mg/mL using 100% DMSO. • Preculture: yeast and bacteria are plated on potato dextrose agar, resuspended in potato dextrose broth and CFU via OD measurement determined; adjusting CFU of the strain in PDB pH 3.8 • Preculture: for mycel forming fungi spores were directly used after thawing of cryopreserved stocks of known titre • Final titre used for the assay: Yeast strains 5*10^3 CFU/ml, Bacteria 1*10^6 CFU/ml, Fungi (spores) 5*10^4 CFU/ml • Potato dextrose broth pH 3.8 was used as assay matrix • 500 ppm (0.05%) of the compounds were screened (final DMSO 2.5% (v/v)) • Volume: 100 μl in 96-well format • Positive controls: potassium sorbate, sodium benzoate & triclosan • 28° C. to 30° C., static incubation • Incubation time depending on spoilage organism between 2 and 8 days • Visual evaluation (per eye, for fungi with binocular magnification)

[16] = test system: Malassezia furfur DSM 6170; experiment: Antimicrobial activity (MIC), Malassezia furfur DSM 6170; details: DSM6170, potato dextrose broth pH 3.8, visual evaluation, read-out: Minimal Inhibitory Concentration (MIC)
[17] = test system: Candida parapsilosis ATCC 20384; experiment: Antimicrobial activity (MIC), Candida parapsilosis ATCC 20384; details: Lodderomyces parapsilosis, ATCC20384, potato dextrose broth pH 3.8, visual evaluation, read-out: Minimal Inhibitory Concentration (MIC)
[18] = test system: Corynebacterium xerosis DSM 20743; experiment: Antimicrobial activity (MIC), Corynebacterium xerosis DSM 20743; details: DSM20743, potato dextrose broth pH 3.8, visual evaluation, read-out: Minimal Inhibitory Concentration (MIC)
[19] = test system: Clostridium perfringens DSM756; experiment: microbe, parasite or virus in culture; details: DSM756, pH 3.8, read-out: Minimal Inhibitory Concentration (MIC)
[20] = test system: Aspergillus brasiliensis DSM 1988; experiment: Antimicrobial activity (MIC), Aspergillus brasiliensis DSM 1988; details: DSM1988, potato dextrose broth pH 3.8, visual evaluation, read-out: Minimal Inhibitory Concentration (MIC)
[21] = test system: Dekkera naardenensis CBS 6115; experiment: Antimicrobial activity (MIC), Dekkera naardenensis CBS 6115; details: Brettanomyces naardenensis, CBS6115, potato dextrose broth pH 3.8, visual evaluation, read-out: Minimal Inhibitory Concentration (MIC)
[22] = test system: Penicillium expansum DSM 62841; experiment: Antimicrobial activity (MIC), Penicillium expansum DSM 62841; details: DSM62841, potato dextrose broth pH 3.8, visual evaluation, read-out: Minimal Inhibitory Concentration (MIC)
[23] = test system: Candida albicans ATCC10231; experiment: Antimicrobial activity (MIC), Candida albicans ATCC10231; details: potato dextrose broth pH 3.8, visual evaluation, read-out: Minimal Inhibitory Concentration (MIC)
[24] = test system: Zygosaccharomyces bailii DSM 70834; experiment: Antimicrobial activity (MIC), Zygosaccharomyces bailii DSM 70834; details: DSM70834, potato dextrose broth pH 3.8, visual evaluation, read-out: Minimal Inhibitory Concentration (MIC)
[25] = test system: Alicyclobacillus acidoterrestris DSM 2498; experiment: Antimicrobial activity (MIC), Alicyclobacillus acidoterrestris DSM 2498; details: DSM2498, potato dextrose broth pH 3.8, visual evaluation, read-out: Minimal Inhibitory Concentration (MIC)
[26] = test system: Leuconostoc mesenteroides DSM 20343; experiment: Antimicrobial activity (MIC), Leuconostoc mesenteroides DSM 20343; details: DSM20343, potato dextrose broth pH 3.8, visual evaluation, read-out: Minimal Inhibitory Concentration (MIC)
[27] = test system: Zygosaccharomyces rouxii DSM 7525; experiment: Antimicrobial activity (MIC), Zygosaccharomyces rouxii DSM 7525; details: DSM7525, potato dextrose broth pH 3.8, visual evaluation, read-out: Minimal Inhibitory Concentration (MIC)
[28] = test system: Lactobacillus paracasei ssp. paracasei DSM 46331; experiment: Antimicrobial activity (MIC), Lactobacillus paracasei ssp. paracasei DSM 46331; details: Lacticaseibacillus paracasei, DSM46331, potato dextrose broth pH 3.8, visual evaluation, read-out: Minimal Inhibitory Concentration (MIC)
[29] = test system: Saccharomyces cerevisiae DSM 2548; experiment: Antimicrobial activity (MIC), Saccharomyces cerevisiae DSM 2548; details: DSM2548, potato dextrose broth pH 3.8, visual evaluation, read-out: Minimal Inhibitory Concentration (MIC)
[30] = test system: Yarrowia lipolytica DSM 70561; experiment: Antimicrobial activity (MIC), Yarrowia lipolytica DSM 70561; details: DSM70561, potato dextrose broth pH 3.8, visual evaluation, read-out: Minimal Inhibitory Concentration (MIC)
[31] = test system: Bacillus licheniformis DSM 13; experiment: Antimicrobial activity (MIC), Bacillus licheniformis DSM 13; details: DSM13, potato dextrose broth pH 3.8, visual evaluation, read-out: Minimal Inhibitory Concentration (MIC)

Row | Structure (SMILES) | MIC [1] | MIC [2] | MIC [3] | MIC [6] | MIC [9] | MIC [10] | MIC [11] | MIC [12] | MIC [13] | MIC [14] | MIC [15] | further results
1 | O=C(O)CCCCCCCCCCCCCC(O)CO[C@@H]1O[C@H](COC(=O)O)[C@@H](O[C@@H]2O[C@H](CO)[C@@H](O)[C@H](O)[C@H]2OC(=O)CC(O)CCO)[C@H](O)[C@H]1O (stereo partly shown) [NP-018250] | 125 µg/mL (≈ 162 µM) | 125 µg/mL (≈ 162 µM) | 250 µg/mL (≈ 323 µM) | 125 µg/mL (≈ 162 µM) | 125 µg/mL (≈ 162 µM) | 125 µg/mL (≈ 162 µM) | 125 µg/mL (≈ 162 µM) | 125 µg/mL (≈ 162 µM) | 125 µg/mL (≈ 162 µM) | 125 µg/mL (≈ 162 µM) | 250 µg/mL (≈ 323 µM) | MIC [4]: 250 µg/mL (≈ 323 µM); MIC [5]: 250 µg/mL (≈ 323 µM); MIC [7]: 250 µg/mL (≈ 323 µM); MIC ([8]; read-out: Minimal Inhibitory Concentration (MIC)): ≤ 125 µg/mL
2 | CCCCCC(O)CC(=O)O[C@H]1[C@H](O[C@H]2[C@H](O)[C@@H](O)[C@H](OCC(O)CCCCCCCCCCCCC(O)C(=O)O)O[C@@H]2COC(C)=O)O[C@H](CO)[C@@H](O)[C@@H]1O (stereo partly shown) [NP-018256] | ≤ 125 µg/mL | ≤ 125 µg/mL | 240 µg/mL (≈ 295 µM) | ≤ 125 µg/mL | ≤ 125 µg/mL | ≤ 125 µg/mL | ≤ 125 µg/mL | ≤ 125 µg/mL | ≤ 125 µg/mL | 500 µg/mL (≈ 615 µM) | 80 µg/mL (≈ 98.4 µM) | MIC [16]: 80 µg/mL (≈ 98.4 µM); MIC [17]: 240 µg/mL (≈ 295 µM); MIC [18]: 1200 µg/mL (≈ 1480 µM); MIC [19]: 80 µg/mL (≈ 98.4 µM); MIC [20]: 240 µg/mL (≈ 295 µM); MIC [21]: 80 µg/mL (≈ 98.4 µM); MIC [22]: 240 µg/mL (≈ 295 µM); MIC [23]: 80 µg/mL (≈ 98.4 µM); MIC [24]: 80 µg/mL (≈ 98.4 µM); Minimal Inhibitory Concentration (MIC) [8]: inact.; MIC [25]: 240 µg/mL (≈ 295 µM); MIC [26]: 240 µg/mL (≈ 295 µM); MIC [27]: 80 µg/mL (≈ 98.4 µM); MIC [28]: 240 µg/mL (≈ 295 µM); MIC [29]: 240 µg/mL (≈ 295 µM); MIC [30]: 240 µg/mL (≈ 295 µM); MIC [31]: 240 µg/mL (≈ 295 µM)
